These are literature values, as cited in patent US20100247649A1, “PHARMACEUTICAL FORMULATIONS COMPRISING TELMISARTAN AND HYDROCHLOROTHIAZIDE” (DR. REDDY'S LABORATORIES LTD., priority 2007, published 2010).

For the compound `NS(=O)(=O)c1cc2c(cc1Cl)NCNS2(=O)=O` [Hydrochlorothiazide, 6-chloro-3,4-dihydro-2H-1,2,4-benzothiadiazine-7-sulfonamide 1,1-dioxide], for the setting “alkaline conditions”, the “Stability in alkaline conditions” value is given as “degrades”.
In the case of `CCCc1nc2c(C)cc(-c3nc4ccccc4n3C)cc2n1Cc1ccc(-c2ccccc2C(=O)O)cc1` [Telmisartan, 4′-[(1,4′-dimethyl-2′-propyl[2,6′-bi-1H-benzimidazol]-1′-yl)methyl]-[1,1′-biphenyl]-2-carboxylic acid], the “Aqueous solubility in the physiological pH range of the gastrointestinal tract” value (between pH 1 and 7) was “very poor”. Besides, where the note is “hydrochloric acid”, the “Solubility in hydrochloric acid” value is listed as “insoluble”. Also, the “Solubility in the pH range of 3 to 9” value (pH range of 3 to 9) is given as “practically insoluble”. For the same compound, the “Solubility in strong acids” value (strong acids (except hydrochloric acid)) is “sparingly soluble”. In addition, the “Solubility in strong bases” value (strong bases) is listed as “soluble”. Also, the Solubility in water entry (water) is listed as “practically insoluble”.
